Data from US20260272936A1, “TREATMENT OF CANCER WITH A PARG INHIBITOR” (858 Therapeutics, Inc., priority 2023, published 2026).

What was measured:
[1] = test system: HBCx-22 breast cancer patient-derived xenograft; experiment: HBCx-22 breast cancer PDX model; format: in vivo, Hsd: Athymic Nude-Foxn1nu mice; conditions: 75 or 100 mg/kg BID, 42 days
Experimental: The PDX models were established by subcutaneous inoculation of HBCx-22 or HBCx-34 cells into Hsd: Athymic Nude-Foxn1nu mice. Breast tumor-bearing mice received estrogen diluted in drinking water (β-oestradiol, 8.5 mg/L) from the date of tumor inoculation until the end of the study to promote optimal growth of the ER^+ cell line. Groups of 10 animals each were established by random assignment. Tumor volumes and body weights were measured twice weekly. […] Statistical analysis of end-of-study tumor volumes was performed using the Kruskal-Wallis test with Dunn's multiple comparisons test (HBCx-34) or Brown-Forsythe test with Dunnett's T3 multiple comparisons test (HBCx-22).
Compound 1 was administered to mice orally twice daily (BID) for 42 days at a dose of 75 or 100 mg/kg based on body weight. […] Compound 1 was administered to mice orally BID for 35 days at doses of 75 or 100 mg/kg based on body weight.

[2] = test system: HCC1428 breast cancer xenograft; experiment: HCC1428 breast cancer CDX model, tumor volume and body weight; format: in vivo, BALB/c nude mice; conditions: for % TGI: 25 days
Experimental: Two separate studies were performed. […] Groups of 8 animals each were established by random assignment. Tumor volumes and body weights were measured twice weekly. The tumor volume (TV) in mm^3 was estimated using the formula: TV=a×b^2/2, where a and b are the long and short diameters of a tumor, respectively. For each treatment group, if the mean TV at the end of study was greater than the mean tumor volume at treatment initiation, then tumor growth inhibition (TGI) was calculated using the formula: % TGI=[1-(Mean TreatedTVFinal−Mean Treated TVInitial)/(Mean Vehicle TVFinal−Mean VehicleTVInitial)]×100. If the mean TV of the treatment group at the end of study was less than the mean tumor volume at treatment initiation, then tumor regression (REG) was calculated using the formula: % REG=[(Mean Treated TVInitial−Mean Treated TVFinal)/Mean TreatedTVInitial]×100. Statistical analysis of end-of-study tumor volumes was performed using two-way repeated measures ANOVA followed by post hoc comparisons of the mean.
The PARP inhibitor niraparib was included as a comparator and dosed orally QD at a dose of 45 mg/kg.
The mice in the 50 mg/kg BID group were dosed every day whereas the mice in the […] were dosed for the first 5 days of each 7-day cycle, such that the total weekly dose was the same between these two groups. At the end of the study, tumor tissue was collected for the vehicle, 50 mg/kg BID, and 30, 50 and 100 mg/kg QD dose groups and formalin-fixed and paraffin embedded (FFPE) for γH2AX immunohistochemistry. γH2AX expression in FFPE tumor tissue was evaluated by staining and was performed using immunohistochemistry and validated antibody conditions at Histowiz (Long Island City, NY, USA). The γH2AX IHC images were then quantified in-house using QuPath software. The total number of nuclei objects per tumor section based on hematoxylin counter-staining (blue) were segmented using a Stardist algorithm and the number of γH2AX positive DAB (3,3′ Diaminobenzidine) stained cells (brown) quantified using object classification with a pre-trained random forest model based on DAB staining parameters including intensity and standard deviation.

SMILES: [2H]C([2H])(c1cnn(C)c1)N1C(=O)c2cc(S(=O)(=O)NC3(C)CC3)ccc2N2C1=NC[C@H]2C [Compound 1, (R)-1-methyl-4-((1-methyl-1H-pyrazol-4-yl)methyl-d2)-N-(1-methylcyclopropyl)-5-oxo-1,2,4,5-tetrahydroimidazo[1,2-a]quinazoline-7-sulfonamide]
- tolerability (body weight) [1]: generally well tolerated
- mean body loss over the treatment period ([2]; Study 1, 75 mg/kg BID): < 4%
- mean body weight change over the treatment period ([2]; Study 1, 100 mg/kg QD): mean body weight increase
- % TGI ([2]; Study 2, 10 mg/kg QD oral): 26% TGI
- % TGI ([2]; Study 2, 30 mg/kg QD oral): 35% TGI
- mean body weight loss during the treatment period ([2]; Study 2, all dose groups): ≤ 2%
